Test results taken from patent US7354955B2, “(2S)-amino(phenyl)acetic acid and derivatives as α2δ voltage-gated calcium channel ligands” (Abbott Laboratories, priority 2004, dated 2008).
Like-named read-outs stand apart in the source and are kept apart here.

Columns and labels:
[1] = system: mechanical allodynia in rats that had undergone spinal nerve ligation; assay: Analgesic effect: mechanical allodynia (von Frey) after L5/L6 spinal nerve ligation; settings: oral, 60 minutes before von Frey testing; percentage of maximal protective effect relative to vehicle; Sprague Dawley rats
gabapentin binding site = settings: cited from earlier work
[2] = anti-convulsant drugs, background statement

For `N[C@H](C(=O)O)c1ccccc1` [(2S)-amino(phenyl)acetic acid], the EC50 [1] was 50 µmol/kg.

`NCC1(CC(=O)O)CCCCC1` [Gabapentin] gave an EC50 [1] of 160 µmol/kg.

In the case of `C[C@]12N[C@H](Cc3ccccc31)c1ccccc12` [MK801], the “interaction with the gabapentin binding site” value (“interaction” below) (gabapentin binding site) is listed as “do not interact”.

For `Cn1c(=O)c2c(ncn2C)n(C)c1=O` [caffeine], the “interaction” value (gabapentin binding site; ligands for other calcium channel subtypes, background statement) is listed as “do not interact”.

For `COc1cc(CNC(=O)CCCC/C=C/C(C)C)ccc1O` [capsaisin], the “interaction” value (gabapentin binding site) is listed as “do not interact”.

In the case of `NC(=O)N1c2ccccc2C=Cc2ccccc21` [carbamazepine], the “competition for gabapentin binding” value (gabapentin binding site; [2]) is given as “do not compete”.

For `CN1C(=O)CN=C(c2ccccc2)c2cc(Cl)ccc21` [diazepam], the “competition for gabapentin binding” value (gabapentin binding site) is given as “do not compete”.

In the case of `CCC1(c2ccccc2)C(=O)NC(=O)NC1=O` [phenobarbitone], the “competition for gabapentin binding” value (gabapentin binding site) is listed as “do not compete”.

In the case of `O=C1NC(=O)C(c2ccccc2)(c2ccccc2)N1` [phenytoin], the “competition for gabapentin binding” value (gabapentin binding site; [2]) is listed as “do not compete”.

In the case of `COc1ccc(CCN(C)CCCC(C#N)(c2ccc(OC)c(OC)c2)C(C)C)cc1OC` (centres unmarked) [verapamil], the “interaction” value (gabapentin binding site) is given as “do not interact”.

In the case of ryanodine, the “interaction” value (gabapentin binding site) is listed as “do not interact”.
